Reference: patent US20220213052A1, “INHIBITORS OF RNA-BINDING PROTEINS, COMPOSITIONS THEREOF, AND THERAPEUTIC USES THEROF” (The University of North Carolina at Chapel Hill, priority 2019, published 2022)
Where two headings read alike, the source gives them in different places.

Assays:
[1] = biological target: T1, full-length human HuR protein (Homo sapiens, UniProt Q15717); assay: FP assay of HuR-Msi1 ARE binding inhibition; settings: HuR-Msi1 ARE interaction; read-out: HuR Ki via FP assay
T1 construct: full-length human HuR protein was produced by the KU COBRE-PSF Protein Purification Group; made in house
Excerpt: A fluorescence polarization (FP)-based binding assay was utilized to assess the inhibition of HuR protein interaction with the ARE site of Msi1 mRNA (“HuR-Msi1^ARE”) by compounds of interest. Briefly, full-length human HuR protein was produced by the KU COBRE-PSF Protein Purification Group and Bcl2, Msi1 and XIAP mRNA sequences (16 nt) were designed based on literature precedent^23,24,31,32. Fluorescein labeled RNAs were purchased from Dharmacon with the following sequences: Msi1 RNA: 5′-[…]-3′-fluorescein; Bcl-2 RNA: 5′-[…]-3′-fluorescein; XIAP RNA: 5′-[…] UGUC-3′-fluorescein, and a 16-nt degenerative RNA with 3′-fluorescein label was used as a negative control.
(§1) With the FP assay of HuR-Msi1ARE binding, the inhibition of the HuR-Msi1ARE interaction by various compounds of the present technology was assessed. Similar FP assays for Musashi 2 (Msi2) and for RNA-binding protein Lin-28 homolog B (LIN28B) were also performed on various compounds of the present technology. The results of such assays for HuR are provided in Table 1 alongside the compound structures as well as ID numbers for ease of reference; the results of such assays for Msi1, Msi2, and LIN28B are provided in Table 2.

[2] = tested on: triple-negative breast cancer cell line MDA-MB-231; assay: Cytotoxicity assay (WST-8), MDA-MB-231; assay type: cell-based; settings: Homo sapiens, 96 h incubation
Procedure: (§2) The cytotoxicity of various compounds of the present technology in several cancer cell lines (pancreatic cancer cell line MIAPaCa-2, triple-negative breast cancer cell line MDA-MB-231, and colon cancer cell lines HCT116, HCT116 β/W, and RKO) was assessed by a cytotoxicity assay. Cells were seeded in 96-well culture plates (3,000-5,000 cells/well) and treated with titrated compounds in triplicate. After 96 h incubation, cell growth medium was removed and proliferation reagent WST-8 (Sigma) was added to each well and incubated at 37° C. for 1-3 h. Absorbance was then measured with a plate reader at 450 nm with correction at 650 nm. The results were expressed as the percentage of absorbance of treated wells versus that of vehicle control. IC50, the drug concentration causing 50% growth inhibition, was calculated via sigmoid curve fitting using GraphPad Prism 5.0. The results for those compounds tested against MIAPaCa-2 and MDA-MB-231 are provided in Table 1; the results for those compounds tested against colon cancer cell lines HCT116, HCT116 β/W, and RKO are provided in Table 3.

Msi1 = Msi1 (Homo sapiens, UniProt O43347); assay: Msi1 FP assay; assay type: binding
Procedure: as §1

Musashi 2 (Msi2) = Musashi 2 (Msi2) (Homo sapiens, UniProt Q96DH6); assay: Msi2 FP assay; assay type: binding
Procedure: as §1

[3] = biological target: T2, RNA-binding protein Lin-28 homolog B (LIN28B) (Homo sapiens, UniProt Q6ZN17); assay: LIN28B FP assay
T2 sequence (Q6ZN17 1-250): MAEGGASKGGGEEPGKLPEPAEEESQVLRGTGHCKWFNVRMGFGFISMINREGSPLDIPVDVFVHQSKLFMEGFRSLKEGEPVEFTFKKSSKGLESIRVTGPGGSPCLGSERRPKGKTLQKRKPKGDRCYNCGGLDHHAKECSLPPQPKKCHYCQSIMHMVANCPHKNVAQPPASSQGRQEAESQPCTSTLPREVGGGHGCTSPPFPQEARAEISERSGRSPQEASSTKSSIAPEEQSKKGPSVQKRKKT
Procedure: as §1

[4] = tested on: colon cancer cell line HCT116; assay: Cytotoxicity assay (WST-8), HCT116; assay type: cell-based; settings: Homo sapiens, HCT-116, 96 h incubation
Procedure: as §2

[5] = tested on: colon cancer cell line HCT116 β/W; assay: Cytotoxicity assay (WST-8), HCT116 β/W; assay type: cell-based; settings: Homo sapiens, HCT-116, 96 h incubation
Procedure: as §2

[6] = tested on: colon cancer cell line RKO; assay: Cytotoxicity assay (WST-8), RKO; assay type: cell-based; settings: 96 h incubation
Procedure: as §2

[7] = tested on: colon cancer cell line SW480; assay: Cytotoxicity assay (WST-8), SW480; assay type: cell-based; settings: Homo sapiens, 96 h incubation
[8] = tested on: pancreatic cancer cell line MIAPaCa-2; assay: Cytotoxicity assay (WST-8), MIAPaCa-2; assay type: cell-based; settings: Homo sapiens, MIA PaCa-2, 96 h incubation
Procedure: as §2

[9] = cell marked (RRM1), read-out: Msi2 (Ki) (RRM1)
[10] = cell without (RRM1) mark, read-out: Msi2 (Ki)

Musashi 2 (Msi2), sequence (Q96DH6 whole entry, species assumed): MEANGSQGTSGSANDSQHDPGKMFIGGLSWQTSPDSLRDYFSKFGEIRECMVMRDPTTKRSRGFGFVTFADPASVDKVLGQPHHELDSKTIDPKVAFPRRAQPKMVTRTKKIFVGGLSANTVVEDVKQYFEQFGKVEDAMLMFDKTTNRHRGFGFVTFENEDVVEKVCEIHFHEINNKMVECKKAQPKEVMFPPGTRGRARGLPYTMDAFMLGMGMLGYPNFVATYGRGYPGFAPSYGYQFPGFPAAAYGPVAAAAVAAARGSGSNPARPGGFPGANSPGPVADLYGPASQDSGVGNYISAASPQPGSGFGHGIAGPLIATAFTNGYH
T1 sequence (Q15717 whole entry): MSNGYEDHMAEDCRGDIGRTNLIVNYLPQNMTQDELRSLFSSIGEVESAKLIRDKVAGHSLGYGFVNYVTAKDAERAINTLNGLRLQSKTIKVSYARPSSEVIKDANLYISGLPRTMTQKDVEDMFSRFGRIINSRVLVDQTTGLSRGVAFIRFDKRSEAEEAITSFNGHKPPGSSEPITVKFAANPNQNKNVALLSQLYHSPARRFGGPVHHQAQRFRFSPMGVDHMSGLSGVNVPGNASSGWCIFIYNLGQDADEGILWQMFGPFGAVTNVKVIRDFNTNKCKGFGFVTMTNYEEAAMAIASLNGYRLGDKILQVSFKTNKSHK
Msi1, sequence (O43347 whole entry, species assumed): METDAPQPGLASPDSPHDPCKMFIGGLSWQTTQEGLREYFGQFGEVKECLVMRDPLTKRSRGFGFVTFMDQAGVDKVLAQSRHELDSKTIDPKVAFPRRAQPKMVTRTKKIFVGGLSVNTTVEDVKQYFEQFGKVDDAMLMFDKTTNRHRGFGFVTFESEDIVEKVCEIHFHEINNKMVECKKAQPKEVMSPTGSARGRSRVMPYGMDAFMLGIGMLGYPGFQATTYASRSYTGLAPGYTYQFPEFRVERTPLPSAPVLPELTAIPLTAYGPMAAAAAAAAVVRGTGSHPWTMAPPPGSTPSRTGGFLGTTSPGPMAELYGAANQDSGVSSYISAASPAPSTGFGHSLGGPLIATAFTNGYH

Ki [1] | Ki (Msi1) | Ki (Musashi 2 (Msi2); [9]) | Ki [3] | Ki (Musashi 2 (Msi2); [10]) | Structure (SMILES) | IC50 [2] | IC50 [4] | IC50 [5] | IC50 [6] | IC50 [7] | IC50 [8]
1.53 µM | > 20 µM |  | > 20 µM | > 20 µM | O=C(CCc1cc2cc(NC(=O)c3ccc(S(F)(F)(F)(F)F)cc3)ccc2s1)NO [KH-34, N-(2-(3-(Hydroxyamino)-3-oxopropyl)benzo[b]thiophen-5-yl)-4-(pentafluoro-X^6-sulfanyl)benzamide] | 3.97 µM |  |  |  |  | 
0.51 µM | 4.87 µM | 2.64 µM | > 20 µM |  | O=C(/C=C/c1cc2cc(NC(=O)c3ccc(C(F)(F)F)cc3)ccc2s1)NO [KH-32] | 2.62 µM |  |  |  |  | 
0.55 µM |  | 1.5 µM | 7.1 µM |  | CN(C)c1ccc(C(=O)Nc2ccc3sc(/C=C/C(=O)NO)cc3c2)cc1 [KH-36, (E)-4-(dimethylamino)-N-(2-(3-(hydroxyamino)-3-oxoprop-1-en-1-yl)benzo[b]thiophen-5-yl)benzamide] | 4.02 µM | 5.05 µM | 4 µM | 5.74 µM | 4.89 µM | 
0.83 µM | > 20 µM |  | > 20 µM | > 20 µM | CC(C)(C)c1ccc(C(=O)Nc2ccc3sc(CCC(=O)NO)cc3c2)cc1 [KH-22, 4-(tert-Butyl)-N-(2-(3-(hydroxyamino)-3-oxopropyl)benzo[b]thiophen-5-yl)benzamide] | 3.48 µM |  |  |  |  | 
> 20 µM | > 20 µM |  | > 20 µM | > 20 µM | CC(C)(C)C(=O)Nc1ccc2sc(/C=C/C(=O)NO)cc2c1 [KH-20, (E)-N-hydroxy-3-(5-pivalamidobenzo[b]thiophen-2-yl)acrylamide] |  |  |  |  |  | 3.98 µM
4.98 µM | > 20 µM |  | > 20 µM | > 20 µM | CC(C)(C)c1cccc(C(=O)Nc2ccc3sc(CCC(=O)NO)cc3c2)c1 [KH-30, 3-(tert-Butyl)-N-(2-(3-(hydroxyamino)-3-oxopropyl)benzo[b]thiophen-5-yl)benzamide] | 5.51 µM |  |  |  |  | 
2.88 µM | > 20 µM |  | > 20 µM | > 20 µM | CN(C)c1ccc(C(=O)Nc2ccc3sc(CCC(=O)NO)cc3c2)cc1 [KH-38] | 25.9 µM |  |  |  |  | 
3.72 µM | > 20 µM |  | > 20 µM | > 20 µM | Cc1ccc(C(=O)Nc2ccc3sc(CCC(=O)NO)cc3c2)cc1 [KH-27, N-(2-(3-(hydroxyamino)-3-oxopropyl)benzo[b]thiophen-5-yl)-4-methylbenzamide] | 9.34 µM |  |  |  |  | 
2.51 µM | > 20 µM |  | > 20 µM | > 20 µM | O=C(CCc1cc2cc(NC(=O)c3ccc(C(F)(F)F)cc3)ccc2s1)NO [KH-29, N-(2-(3-(hydroxyamino)-3-oxopropyl)benzo[b]thiophen-5-yl)-4-(trifluoromethyl)benzamide] | 12.4 µM |  |  |  |  | 

Second part, the molecule before the results:

Structure (SMILES) | Ki [1] | Ki (Msi1) | Ki (Musashi 2 (Msi2); [9]) | Ki [3] | Ki (Musashi 2 (Msi2); [10]) | IC50 [2] | IC50 [4] | IC50 [5] | IC50 [6] | IC50 [7] | IC50 [8]
CN(C)c1ccc(C(=O)Nc2ccc3sc(/C=C/C(=O)O)cc3c2)cc1 [KH-36A, (E)-3-(5-(4-(Dimethylamino)benzamido)benzo[b]thiophen-2-yl)acrylic acid] | 0.12 µM | 0.22 µM | 0.5 µM | 1.64 µM |  | > 100 µM | 98.5 µM | 99.9 µM | 62.9 µM | > 100 µM | 
O=C(O)/C=C/c1cc2cc(NC(=O)c3ccc(S(F)(F)(F)(F)F)cc3)ccc2s1 [KH-33A, (E)-3-(5-(4-(pentafluoro-λ^6-sulfanyl)benzamido)benzo[b]thiophen-2-yl)acrylic acid] | 1.2 µM | 2.63 µM | 1.03 µM | > 20 µM |  | 50.1 µM |  |  |  |  | 
CN(C)c1ccc(C(=O)Nc2ccc3sc(CCC(=O)NN)cc3c2)cc1 [KH-38E] | 3.56 µM | > 20 µM |  | > 20 µM | > 20 µM | 57.6 µM |  |  |  |  | 
CC(C)c1ccc(C(=O)Nc2ccc3sc(CCC(=O)NN)cc3c2)cc1 [KH-37E] | 5.18 µM | > 20 µM |  | > 20 µM | > 20 µM | > 100 µM |  |  |  |  | 
CN(C)c1ccc(C(=O)Nc2ccc3sc(CCC(=O)O)cc3c2)cc1 [KH-38A, 3-(5-(4-(Dimethylamino)benzamido)benzo[b]thiophen-2-yl)propanoic acid] | > 20 µM | > 20 µM |  | > 20 µM | > 20 µM | > 100 µM |  |  |  |  | 
CC(C)(C)c1cccc(C(=O)Nc2ccc3sc(CCC(=O)O)cc3c2)c1 [KH-30A, 3-(5-(3-(tert-butyl)benzamido)benzo[b]thiophen-2-yl)propanoic acid] | > 20 µM | > 20 µM |  | > 20 µM | > 20 µM | > 100 µM |  |  |  |  | 
CC(C)c1ccc(C(=O)Nc2ccc3sc(CCC(=O)O)cc3c2)cc1 [KH-37A, 3-(5-(4-Isopropylbenzamido)benzo[b]thiophen-2-yl)propanoic acid] | > 20 µM | > 20 µM |  | > 20 µM | > 20 µM | > 100 µM |  |  |  |  | 
CC(C)(C)c1ccc(C(=O)Nc2ccc3sc(CCC(=O)O)cc3c2)cc1 [KH-22A, 3-(5-(4-(tert-Butyl)benzamido)benzo[b]thiophen-2-yl)propanoic acid] | 3.83 µM | > 20 µM |  | > 20 µM | > 20 µM | 19.8 µM |  |  |  |  | 
CC(C)(C)c1cccc(C(=O)Nc2ccc3sc(CCC(=O)NN)cc3c2)c1 [KH-30E] | 4.19 µM | > 20 µM |  | > 20 µM | > 20 µM | 22.7 µM |  |  |  |  | 
CC(C)(C)C(=O)Nc1ccc2sc(/C=C/C(=O)O)cc2c1 [KH-20A, (E)-3-(5-pivalamidobenzo[b]thiophen-2-yl)acrylic acid] | > 20 µM | > 20 µM |  | > 20 µM | > 20 µM |  |  |  |  |  | > 100 µM
CC(C)(C)c1ccc(C(=O)Nc2ccc3sc(/C=C/C(N)=O)cc3c2)cc1 [KH-19C, (E)-N-(2-(3-amino-3-oxoprop-1-en-1-yl)benzo[b]thiophen-5-yl)-4-(tert-butyl)benzamide] | 0.6 µM | > 20 µM |  | > 20 µM | 4.83 µM | 8.68 µM |  |  |  |  | 
CC(C)(C)c1ccc(C(=O)Nc2ccc3sc(CCC(N)=O)cc3c2)cc1 [KH-22C, N-(2-(3-amino-3-oxopropyl)benzo[b]thiophen-5-yl)-4-(tert-butyl)benzamide] | 7 µM | > 20 µM |  | > 20 µM | > 20 µM | 2.87 µM |  |  |  |  | 
CC(C)(C)c1ccc(C(=O)Nc2ccc3[nH]c(C(=O)O)cc3c2)cc1 [KH-39A, 5-(4-(tert-butyl)benzamido)-1H-indole-2-carboxylic acid] | 12.5 µM | > 20 µM | 22 µM | > 20 µM |  | > 100 µM |  |  |  |  | 
CC(C)(C)c1cccc(C(=O)Nc2ccc3sc(/C=C/C(=O)O)cc3c2)c1 [KH-31A, (E)-3-(5-(3-(tert-Butyl)benzamido)benzo[b]thiophen-2-yl)acrylic acid] | 2.27 µM | 4.6 µM | 1.36 µM | > 20 µM |  | 95.3 µM |  |  |  |  | 
